Experimental data: US12077503B2, “Substituted cyclic amides and their use as herbicides” (FMC CORPORATION, priority 2015, dated 2024)

Experiments:
Type in all cases: in vivo
[1] = test system: ragweed (common ragweed, Ambrosia elatior); experiment: Test A preemergence; details: Ambrosia artemisiifolia, pre-emergence, 240 h, preemergence, 0 to 100 scale where 0 is no effect and 100 is complete control, read-out: Ragweed plant response rating; for pest or weed control at 125 g/ha: 125 g ai/ha, approx. 10 d; for pest or weed control at 500 g/ha: 500 g ai/ha
Procedure, shortened: (§1)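 Preemergence directed soil spray on seeded pots, or postemergence application to plants 2–10 cm, one- to two-leaf. Solvent mixture non-phytotoxic, with surfactant. Scored ~10 d later, visually, 0–100 vs untreated.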

[2] = test system: Galium (catchweed bedstraw, Galium aparine); experiment: Test A postemergence; details: Galium, post-emergence, 240 h, postemergence, read-out: Galium plant response rating; for pest or weed control at 125 g/ha: 125 g ai/ha, visual injury on 0 to 100 scale (0 no effect, 100 complete control), approx. 10 d; for pest or weed control at 500 g/ha: 500 g ai/ha, 0 to 100 scale, 0 is no effect, 100 is complete control
Procedure, shortened: as §1

[3] = test system: Kochia (Kochia scoparia); experiment: Test A postemergence; details: Bassia scoparia, post-emergence, 240 h, postemergence, read-out: Kochia plant response rating; for pest or weed control at 125 g/ha: 125 g ai/ha, visual injury on 0 to 100 scale (0 no effect, 100 complete control), approx. 10 d; for pest or weed control at 500 g/ha: 500 g ai/ha, 0 to 100 scale, 0 is no effect, 100 is complete control
Procedure, shortened: as §1

[4] = test system: barnyardgrass (Echinochloa crus-galli); experiment: Test A postemergence; details: Echinochloa crus-galli, post-emergence, 240 h, postemergence, read-out: Barnyardgrass plant response rating; for pest or weed control at 125 g/ha: 125 g ai/ha, visual injury on 0 to 100 scale (0 no effect, 100 complete control), approx. 10 d; for pest or weed control at 500 g/ha: 500 g ai/ha, 0 to 100 scale, 0 is no effect, 100 is complete control
Procedure, shortened: as §1

[5] = test system: blackgrass (Alopecurus myosuroides); experiment: Test A postemergence; details: Alopecurus myosuroides, post-emergence, 240 h, postemergence, read-out: Blackgrass plant response rating; for pest or weed control at 125 g/ha: 125 g ai/ha, visual injury on 0 to 100 scale (0 no effect, 100 complete control), approx. 10 d; for pest or weed control at 500 g/ha: 500 g ai/ha, 0 to 100 scale, 0 is no effect, 100 is complete control
Procedure, shortened: as §1

[6] = test system: corn (Zea mays); experiment: Test A postemergence; details: Zea mays, post-emergence, 240 h, postemergence, read-out: Corn plant response rating; for plant injury at 125 g/ha: 125 g ai/ha, visual injury on 0 to 100 scale (0 no effect, 100 complete control), approx. 10 d; for plant injury at 500 g/ha: 500 g ai/ha, 0 to 100 scale, 0 is no effect, 100 is complete control
Procedure, shortened: as §1

[7] = test system: giant foxtail (Setaria faberii); experiment: Test A postemergence; details: Setaria faberi, post-emergence, 240 h, postemergence, read-out: Foxtail, Giant plant response rating; for pest or weed control at 125 g/ha: 125 g ai/ha, visual injury on 0 to 100 scale (0 no effect, 100 complete control), approx. 10 d; for pest or weed control at 500 g/ha: 500 g ai/ha, 0 to 100 scale, 0 is no effect, 100 is complete control
Procedure, shortened: as §1

[8] = test system: pigweed (Amaranthus retroflexus); experiment: Test A postemergence; details: Amaranthus retroflexus, post-emergence, 240 h, postemergence, read-out: Pigweed plant response rating; for pest or weed control at 125 g/ha: 125 g ai/ha, visual injury on 0 to 100 scale (0 no effect, 100 complete control), approx. 10 d; for pest or weed control at 500 g/ha: 500 g ai/ha, 0 to 100 scale, 0 is no effect, 100 is complete control
Procedure, shortened: as §1

[9] = test system: ragweed (common ragweed, Ambrosia elatior); experiment: Test A postemergence; details: Ambrosia artemisiifolia, post-emergence, 240 h, postemergence, read-out: Ragweed plant response rating; for pest or weed control at 125 g/ha: 125 g ai/ha, visual injury on 0 to 100 scale (0 no effect, 100 complete control), approx. 10 d; for pest or weed control at 500 g/ha: 500 g ai/ha, 0 to 100 scale, 0 is no effect, 100 is complete control
Procedure, shortened: as §1

[10] = test system: ryegrass, Italian (Italian ryegrass, Lolium multiflorum); experiment: Test A postemergence; details: Lolium multiflorum, post-emergence, 240 h, postemergence, read-out: Ryegrass, Italian plant response rating; for pest or weed control at 125 g/ha: 125 g ai/ha, visual injury on 0 to 100 scale (0 no effect, 100 complete control), approx. 10 d; for pest or weed control at 500 g/ha: 500 g ai/ha, 0 to 100 scale, 0 is no effect, 100 is complete control
Procedure, shortened: as §1

[11] = test system: wheat (Triticum aestivum); experiment: Test A postemergence; details: Triticum aestivum, post-emergence, 240 h, postemergence, read-out: Wheat plant response rating; for plant injury at 125 g/ha: 125 g ai/ha, visual injury on 0 to 100 scale (0 no effect, 100 complete control), approx. 10 d; for plant injury at 500 g/ha: 500 g ai/ha, 0 to 100 scale, 0 is no effect, 100 is complete control
Procedure, shortened: as §1

[12] = test system: barnyardgrass (Echinochloa crus-galli); experiment: Test B flooded paddy test; details: Echinochloa crus-galli, 250 g ai/ha, Flood; 0 to 100 scale where 0 is no effect and 100 is complete control; read-out: Barnyardgrass plant response rating
Procedure, shortened: (§2)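 2-leaf plants; pots flooded 3 cm over soil; cpd added to paddy water; depth held; greenhouse 13–15 d; visual rating vs controls, 0 = no effect, 100 = complete control.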

[13] = test system: ducksalad (Heteranthera limosa); experiment: Test B flooded paddy test; details: Heteranthera limosa, 250 g ai/ha, Flood; 0 to 100 scale where 0 is no effect and 100 is complete control; read-out: Ducksalad plant response rating
Procedure, shortened: as §2

[14] = test system: rice (Oryra sativa); experiment: Test B flooded paddy test; details: Oryza sativa, 250 g ai/ha, Flood; 0 to 100 scale where 0 is no effect and 100 is complete control; read-out: Rice plant response rating
Procedure, shortened: as §2

[15] = test system: sedge, umbrella (small-flower umbrella sedge, Cyperus difformis); experiment: Test B flooded paddy test; details: Cyperus difformis, 250 g ai/ha, Flood; 0 to 100 scale where 0 is no effect and 100 is complete control; read-out: Sedge, Umbrella plant response rating
Procedure, shortened: as §2

Row | Compound | pest or weed control at 125 g/ha [1] [%] | pest or weed control at 500 g/ha [1] [%] | pest or weed control at 125 g/ha [2] [%] | pest or weed control at 500 g/ha [2] [%] | pest or weed control at 125 g/ha [3] [%] | pest or weed control at 500 g/ha [3] [%] | pest or weed control at 125 g/ha [4] [%] | pest or weed control at 500 g/ha [4] [%] | pest or weed control at 125 g/ha [5] [%] | pest or weed control at 500 g/ha [5] [%] | plant injury at 125 g/ha [6] [%] | plant injury at 500 g/ha [6] [%] | pest or weed control at 125 g/ha [7] [%] | pest or weed control at 500 g/ha [7] [%] | pest or weed control at 125 g/ha [8] [%] | pest or weed control at 500 g/ha [8] [%] | pest or weed control at 125 g/ha [9] [%] | pest or weed control at 500 g/ha [9] [%] | pest or weed control at 125 g/ha [10] [%] | pest or weed control at 500 g/ha [10] [%] | other results
1 | O=C1NC[C@H](c2cscn2)[C@H]1C(=O)Nc1cccc(F)c1F [Compound 1111] | 0 | 0 | 0 | 0 | 0 | 0 | 0 | 0 | 0 | 0 | 0 | 0 | 20 | 50 | 0 | 0 | 0 | 0 | 0 | 0 | plant injury at 125 g/ha [11]: 0%; plant injury at 500 g/ha [11]: 0%; pest or weed control at 250 g/ha [12]: 20%; pest or weed control at 250 g/ha [13]: 70%; pest or weed control at 250 g/ha [14]: 0%; pest or weed control at 250 g/ha [15]: 0%
2 | O=C1NC[C@H](c2cc(C(F)F)cs2)[C@H]1C(=O)Nc1ccccc1F [Compound 1116] | 0 | 20 | 0 | 40 | 0 | 30 | 30 | 60 | 0 | 30 | 0 | 0 | 0 | 0 | 0 | 0 | 0 | 0 | 0 | 20 | plant injury at 125 g/ha [11]: 0%; plant injury at 500 g/ha [11]: 20%; pest or weed control at 250 g/ha [12]: 50%; pest or weed control at 250 g/ha [13]: 100%; pest or weed control at 250 g/ha [14]: 20%; pest or weed control at 250 g/ha [15]: 75%
3 | O=C1NC[C@H](c2cc(C(F)F)cs2)[C@H]1C(=O)Nc1cccc(F)c1F [Compound 1117] | 20 | 70 | 40 | 40 | 20 | 40 | 80 | 90 | 0 | 40 | 20 | 40 | 20 | 70 | 0 | 0 | 0 | 30 | 0 | 40 | plant injury at 125 g/ha [11]: 0%; plant injury at 500 g/ha [11]: 70%; pest or weed control at 250 g/ha [12]: 60%; pest or weed control at 250 g/ha [13]: 100%; pest or weed control at 250 g/ha [14]: 20%; pest or weed control at 250 g/ha [15]: 0%
